Laboratory results reported in the NIST ThermoML archive (doi:10.1021/acs.jced.9b00536).

Assay: refractive index (Na D-line) (dimensionless); wn = mass fraction of the nth substance listed
Details: 100 kPa, Liquid, Standard Abbe refractometry

[Na+].[OH-] [sodium hydroxide] + O
refractive index
Details | 283.15 K | 288.15 K | 293.15 K
w1 = 0.2 | 1.3856 | 1.3847 | 1.3838
w1 = 0.21 | 1.3875 | 1.3866 | 1.3858
w1 = 0.22 | 1.3904 | 1.3895 | 1.3886
w1 = 0.23 | 1.3922 | 1.3912 | 1.3903
w1 = 0.24 | 1.3941 | 1.3932 | 1.3923
w1 = 0.25 | 1.3969 | 1.3961 | 1.3952
w1 = 0.26 | 1.3991 | 1.3982 | 1.3974
w1 = 0.27 | 1.4009 | 1.4 | 1.3991
w1 = 0.28 | 1.4028 | 1.4019 | 1.4011
w1 = 0.29 | 1.4053 | 1.4044 | 1.4035
w1 = 0.3 | 1.4066 | 1.4056 | 1.4048
w1 = 0.31 | 1.4087 | 1.4077 | 1.4068
w1 = 0.32 | 1.4099 | 1.4091 | 1.4081
w1 = 0.33 | 1.4115 | 1.4107 | 1.4097
w1 = 0.34 | 1.4141 | 1.4132 | 1.4123
w1 = 0.35 | 1.416 | 1.4151 | 1.4142
w1 = 0.36 | 1.4175 | 1.4167 | 1.4158
w1 = 0.37 | 1.419 | 1.4181 | 1.4172
w1 = 0.38 | 1.4209 | 1.42 | 1.4191
w1 = 0.39 | 1.4226 | 1.4217 | 1.4208
w1 = 0.4 | 1.4241 | 1.4232 | 1.4223
w1 = 0.41 | 1.4252 | 1.4243 | 1.4234
w1 = 0.42 | 1.4269 | 1.426 | 1.425
w1 = 0.43 | 1.4281 | 1.4272 | –
w1 = 0.44 | 1.4293 | 1.4284 | –
w1 = 0.45 | 1.4303 | 1.4295 | –
w1 = 0.46 | 1.4321 | 1.4312 | –
w1 = 0.47 | 1.4332 | 1.4323 | –
w1 = 0.48 | 1.4347 | 1.4338 | –
w1 = 0.49 | 1.4356 | 1.4347 | –
w1 = 0.5 | 1.4365 | 1.4355 | –
